Where two headings read alike, the source gives them in different places.
Tests used:
[1] = target: T1, hSSTR4 (Homo sapiens, UniProt P31391); assay: inhibition of cAMP via hSSTR4; format: cell-based; conditions: for EC50: cAMP inhibition, Table C, read-out: hSST4 (EC50); for hSST4/hSST2 (ratio): selectivity for inhibition of cAMP via hSSTR2 vs. hSSTR4
T1 construct: expressed in transfected cells
Description: General overview: All five SSTR subtypes are Gi coupled G-protein coupled receptors (GPCRs) that lead to decreases in intracellular cyclic AMP (cAMP) when activated by an agonist. Therefore, measurement of intracellular cAMP levels can be used to assess whether compounds of the invention are agonists of SSTR subtypes (John Kelly, Troy Stevens, W. Joseph Thompson, and Roland Seifert, Current Protocols in Pharmacology, 2005, 2.2.1-2.2). One example of an intracellular cAMP assay is described below. cAMP assay protocol:
Four days prior to the assay, 5,000 Chinese hamster ovary cells (CHO-K1, ATCC #CCL-61) stably expressing the human somatostatin receptor subtype 2 are plated in each well of a 96-well tissue culture-treated plate in Ham's F12 growth media (ThermoFisher #10-080-CM) supplemented with 10% donor bovine serum (Gemini Bio-Products #100-506), 100 U/mL penicillin; 100 ug/mL streptomycin; 2 mM L-glutamine (Gemini Bio-Products #400-110) and 0.2 mg/mL hygromycin B (GoldBio #31282-04-9). The cells are cultured at 37° C., 5% CO2 and 95% humidity. On the day of the assay, the media is aspirated and the cells are treated with 50 μL of 1.6 μM NKH477 (Sigma #N3290) plus various dilutions of compounds of the invention in assay buffer [1× Hank's Balanced Salt Solution (ThermoFisher #SH3058802), 0.5 mM HEPES pH 7.4, 0.1% bovine serum albumin, 0.2 mM 3-Isobutyl-1-methylxanthine (IBMX, VWR #200002-790)]. The cells are incubated for 20 minutes at 37° C. (the final concentration of the compounds of the invention are typically 0-10,000 nM). The cells are treated with 50 μL of lysis buffer (HRTF cAMP kit, Cisbio). The lysate is transferred to 384-well plates and cAMP detection and visualization antibodies are added and incubated for 1-24 hours at room temperature. The time-resolved fluorescent signal is read with a Tecan M1000Pro multiplate reader. The intracellular cAMP concentrations are calculated by regression to a standard curve and are plotted vs. the concentration of the compounds of the invention and the EC50 of the compounds are calculated using standard methods. All data manipluations are in GraphPad Prism v6.

[2] = target: T2, human CYP2D6 isozyme (Homo sapiens, UniProt P10635); assay: CYP2D6 assay (Vivid CYP2D6 Blue Screening Kit); format: in vitro ADME; conditions: CYP450 microsomes, fluorogenic substrate; read-out: CYP2D6 inh.
T2 construct: purchased ThermoFisher Scientific P2972
T2 sequence (P10635 whole entry): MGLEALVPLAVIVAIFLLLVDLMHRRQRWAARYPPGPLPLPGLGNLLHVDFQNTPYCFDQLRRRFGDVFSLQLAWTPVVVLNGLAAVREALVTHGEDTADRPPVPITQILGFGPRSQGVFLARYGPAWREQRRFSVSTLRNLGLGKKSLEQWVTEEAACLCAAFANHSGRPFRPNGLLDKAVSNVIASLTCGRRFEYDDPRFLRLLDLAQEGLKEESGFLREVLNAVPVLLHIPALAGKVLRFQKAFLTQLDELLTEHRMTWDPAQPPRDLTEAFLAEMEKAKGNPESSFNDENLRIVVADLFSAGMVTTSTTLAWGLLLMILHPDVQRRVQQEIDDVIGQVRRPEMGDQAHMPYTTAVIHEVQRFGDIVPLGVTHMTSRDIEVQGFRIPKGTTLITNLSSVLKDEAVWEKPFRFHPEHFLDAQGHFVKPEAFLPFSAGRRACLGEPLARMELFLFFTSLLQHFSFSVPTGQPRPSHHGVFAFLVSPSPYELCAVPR
Experimental: On the day of the assay, various dilutions of test articles of the invention are prepared in assay buffer (Vivid® CYP2D6 Blue Screening Kit, ThermoFisher Scientific #P2972) and dilutions are added to a preparation of CYP450 microsomes expressing the functional human CYP2D6 isozyme (supplied by the kit) and incubated for 15 minutes at 37° C. to allow interactions between the test article of invention and the enzyme in the absence of enzyme turnover. The enzymatic reaction is initiated by addition of the NADPH co-factor in the precense of the fluorogenic substrate. Under normal conditions, this substrate (which is not fluorescent) is cleaved by active CYP2D6 to produce a a fluorescent product. When in the presence of test article, the lack of appearance of the fluorescent product is evidence of inhibition of the CYP2D6 enzyme by the test article. The enzymatic reaction is allowed to proceed for 30 minutes at […] and then terminated by the addition of 0.5 M Tris pH 10.8. The concentration of fluorescent cleavage product is measured using spectroscopic parameters prescribed in the kit with a Tecan M1000Pro multiplate reader. The percent inhibition is calculated based on the fluorescence intensity observed in the presence of the positive control inhibitor, quinidine (Sigma #Q3625), included in each assay. The percent inhibition is plotted versus test article concentration and an IC50 for CYP2D6 inhibition is calculated using standard methods. All data manipluations are in GraphPad Prism v6.

[3] = target: T3, hERG ion channel (Homo sapiens, UniProt Q12809); assay: hERG fluorescence polarization assay (Predictor kit); format: binding; conditions: tracer displacement, membrane fractions; read-out: hERG inh.
T3 construct: purchased ThermoFisher Scientific PV5365
T3 sequence (Q12809 whole entry): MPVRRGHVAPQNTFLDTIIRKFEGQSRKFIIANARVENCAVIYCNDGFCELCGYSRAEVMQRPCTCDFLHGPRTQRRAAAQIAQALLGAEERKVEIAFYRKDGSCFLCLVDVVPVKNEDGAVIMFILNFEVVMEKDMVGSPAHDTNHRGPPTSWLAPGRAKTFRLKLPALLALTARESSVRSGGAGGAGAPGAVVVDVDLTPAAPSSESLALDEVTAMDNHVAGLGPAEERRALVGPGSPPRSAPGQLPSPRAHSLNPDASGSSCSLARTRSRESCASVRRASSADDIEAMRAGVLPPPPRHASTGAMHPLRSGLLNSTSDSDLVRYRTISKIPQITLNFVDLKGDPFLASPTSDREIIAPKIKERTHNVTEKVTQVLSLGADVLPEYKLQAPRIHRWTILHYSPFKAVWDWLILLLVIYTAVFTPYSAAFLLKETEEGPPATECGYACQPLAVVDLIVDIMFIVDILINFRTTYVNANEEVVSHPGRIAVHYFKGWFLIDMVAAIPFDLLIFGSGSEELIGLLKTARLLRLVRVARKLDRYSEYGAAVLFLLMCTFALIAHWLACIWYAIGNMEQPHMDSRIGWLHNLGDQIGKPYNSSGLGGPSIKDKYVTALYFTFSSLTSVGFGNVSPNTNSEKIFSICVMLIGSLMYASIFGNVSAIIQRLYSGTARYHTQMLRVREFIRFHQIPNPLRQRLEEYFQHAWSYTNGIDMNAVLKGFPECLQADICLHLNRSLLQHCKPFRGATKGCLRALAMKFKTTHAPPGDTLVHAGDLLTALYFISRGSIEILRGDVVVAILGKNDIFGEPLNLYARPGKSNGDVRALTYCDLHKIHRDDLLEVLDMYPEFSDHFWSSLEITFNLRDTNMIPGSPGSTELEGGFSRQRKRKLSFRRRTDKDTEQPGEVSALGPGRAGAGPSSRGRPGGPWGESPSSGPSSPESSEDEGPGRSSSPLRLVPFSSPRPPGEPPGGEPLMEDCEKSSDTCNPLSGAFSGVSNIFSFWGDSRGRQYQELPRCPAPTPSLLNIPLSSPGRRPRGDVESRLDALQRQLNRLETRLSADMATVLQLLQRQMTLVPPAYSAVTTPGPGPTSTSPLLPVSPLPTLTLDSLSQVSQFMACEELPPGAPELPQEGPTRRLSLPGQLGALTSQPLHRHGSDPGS
Experimental: On the day of the assay, various dilutions of test articles of the invention are prepared in assay buffer (Predictor™ hERG Fluorescence Polarization Assay Kit, ThermoFisher Scientific #PV5365) and dilutions are added to membranes fractions that contain the functional hERG ion channel (supplied by the kit). […] Under normal conditions, the tracer binds to the hERG channel and the fluorecence polarization measured is high. […] The concentration of free tracer is measured via fluorescence polarization using parameters prescribed in the kit with a Tecan M1000Pro multiplate reader. […] The fluorescence polarization is plotted versus test article concentration and an IC50 for hERG inhibition is calculated using standard methods. All data manipluations are in GraphPad Prism v6.

[4] = target: T4, human somatostatin receptor subtype 2 (Homo sapiens, UniProt P30874); assay: cAMP functional assay for SSTR2 agonists; format: cell-based
T4 construct: expressed in transfected cells
T4 sequence (P30874 whole entry): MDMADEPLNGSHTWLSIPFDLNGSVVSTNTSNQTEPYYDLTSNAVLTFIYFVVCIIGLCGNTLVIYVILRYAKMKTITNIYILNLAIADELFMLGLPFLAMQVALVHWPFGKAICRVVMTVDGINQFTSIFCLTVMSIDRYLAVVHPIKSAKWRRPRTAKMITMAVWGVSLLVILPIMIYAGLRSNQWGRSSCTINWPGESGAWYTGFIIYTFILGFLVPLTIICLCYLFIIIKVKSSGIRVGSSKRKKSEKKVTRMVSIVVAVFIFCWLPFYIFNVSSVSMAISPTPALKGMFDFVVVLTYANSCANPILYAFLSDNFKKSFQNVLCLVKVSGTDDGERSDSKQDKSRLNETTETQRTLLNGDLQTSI
Procedure, shortened: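 CHO-K1 cells stably expressing human SSTR2 were treated for 20 min at 37 °C with compound plus NKH477 (added as 1.6 μM) in HBSS with IBMX. Intracellular cAMP was measured by HTRF against a standard curve. EC50 values came from concentration-response curves.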

[5] = cAMP inhibition, Table C, read-out: hSST2 (EC50)
[6] = inhibition of cAMP activities via human SST2 receptor (SSTR2), CHO-K1 cells, read-out: EC50

T1 sequence (P31391 whole entry): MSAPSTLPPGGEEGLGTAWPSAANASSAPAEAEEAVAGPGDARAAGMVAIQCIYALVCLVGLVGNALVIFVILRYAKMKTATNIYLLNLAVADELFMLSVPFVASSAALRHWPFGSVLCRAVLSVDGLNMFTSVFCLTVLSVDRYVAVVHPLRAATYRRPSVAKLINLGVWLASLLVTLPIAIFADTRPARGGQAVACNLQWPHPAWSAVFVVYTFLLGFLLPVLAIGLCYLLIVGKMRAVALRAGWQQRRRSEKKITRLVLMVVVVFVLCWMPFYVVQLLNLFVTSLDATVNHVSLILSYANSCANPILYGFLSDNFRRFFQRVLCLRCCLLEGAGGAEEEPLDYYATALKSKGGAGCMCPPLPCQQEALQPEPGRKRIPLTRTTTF

| SMILES | EC50 [1] | hSST4/hSST2 (ratio) [1] | IC50 [2] | IC50 [3] | EC50 [4, 5] | EC50 [4, 6] |
| --- | --- | --- | --- | --- | --- | --- |
| Cc1cc(F)cc(-c2cnc(N)c(-c3nc4cc(F)ccc4[nH]3)c2N2CCC(N)CC2)c1 [Compound 1-6, 4-(4-aminopiperidin-1-yl)-3-(5-fluoro-1H-1,3-benzodiazol-2-yl)-5-(3-fluoro-5-methylphenyl)pyridin-2-amine] | 0.92 nM | b (between 15 and 50) | > 5000 nM | > 5000 nM | 0.06 nM | < 10 nM |
| Cc1cc(F)cc(-c2cnc(N)c(-c3nc4cc(C#N)ccc4[nH]3)c2N2CCC(N)CC2)c1 [Compound 1-12, 2-[2-amino-4-(4-aminopiperidin-1-yl)-5-(3-fluoro-5-methylphenyl)pyridin-3-yl]-1H-1,3-benzodiazole-5-carbonitrile] | 14 nM | a (above 50) | > 5000 nM | > 5000 nM | 0.06 nM | < 10 nM |
| CNc1ncc(-c2cc(C)cc(F)c2)c(N2CCC(N)CC2)c1-c1nc2cc(F)cc(F)c2[nH]1 [Compound 1-48, 4-(4-aminopiperidin-1-yl)-3-(5,7-difluoro-1H-1,3-benzodiazol-2-yl)-5-(3-fluoro-5-methylphenyl)-N-methylpyridin-2-amine] | 15 nM | a (above 50) | > 5000 nM | > 5000 nM | 0.18 nM | < 10 nM |
